Assay results reported in publication PMC12455572, “Amphipathic Proline-Rich Cell Penetrating Peptides for Targeting Mitochondria” (ACS Chemical Biology, 2025).
“Also recorded” adds a separate entry of the source. Where a SMILES comes first, the peptide text is derived from it. [ ]: non-standard residue; d: D form. The star is where a group is joined. 5FAM = O=C1OC2(c3ccc(O)cc3Oc3cc(O)ccc32)c2ccc(C(=O)*)cc21; Pro(cis-4-guanidino) = NC(N)=N[C@@H]1CN[C@H](C(=O)O)C1; Cha = N[C@@H](CC1CCCCC1)C(=O)O; Ahx = NCCCCCC(=O)O

How the values were obtained:
MCF-7 cells [1] = experiment: Flow cytometry (FACS): overall cellular uptake; type: cell-based; details: for Fold higher cellular uptake with additional C-terminal hydrophobic residue (FACS): 1 h, 37 °C, versus the peptide without the C-terminal Cha/ChPro; for Total cellular fluorescence after the 24 h rest compared with directly after 1 h incubation (FACS): MCF-7, 1 h incubation at 37 °C, then 24 h rest in DMEM + 10% FBS
Procedure: MCF-7 cells were seeded in a 24-well plate at 150′000 cells/well in DMEM (1 mL, 10% FCS), and allowed to adhere overnight. The medium was removed, the cells were washed with PBS (250 μL, 1x) and incubated with the peptide solution at 20 μM, 10 μM, 5 μM or 2.5 μM in medium (200 μL, 1% FCS) for 1 h at 37 °C. The medium was removed, and the cells were washed with PBS (250 μL, 2x). Trypsin (100 μL, 0.05%) was added, and the cells were incubated at 37 °C for 5 min. D-PBS with Mg^2+ and Ca^2+ (300 μL, 4 °C) was added, the cells were resuspended and centrifuged for 5 min at 0.4 rcf. The supernatant was carefully removed, and the cells were resuspended in a solution of PBS containing 1.5 μM PI and 2 mM EDTA (400 μL at 4 °C). The cells were added to FACS tubes and kept on ice prior to analysis. Each sample contained 10′000 cells and was analyzed in triplicate. Each experiment was repeated three times.
For the experiments that included the 24 h rest period, the peptides were incubated as described above. After the 1 h incubation time, the cells were washed with PBS (250 μL, 2x), DMEM (250 μL, 10% FBS) was added, and the cells were kept at 37 °C, 5% CO2 for 24 h. For a direct comparison of the effect of a 24 h rest period, another set of peptides was incubated with the cells for 1 h. Then, cells of both sets of experiments (1 h followed by the 24 h rest period versus 1 h incubation) were washed with PBS, treated with trypsin, and prepared for FACS analysis as described above. Each sample was run in triplicate and was repeated three times. […]
MCF-7 cells were obtained from the American Type Culture Collection (ATCC).
The cells were grown in a humidified 5% CO2 atmosphere at 37 °C Dulbecco’s Modified Eagle’s Medium (DMEM), high glucose, GlutaMAXTM (4 mM) supplemented with L-glutamine (4 mM), gentamicin (10 mg/L), […]
Fluorescence-Activated Cell Sorting (FACS) analyzer
On a BD LSRFortessa flow cytometer, CF was excited at 488 nm and monitored with 530/30 bandpass, PI was excited at 561 nm and monitored with a 610/20 bandpass. Mean fluorescence values were determined from the histograms using FlowJo 10.0.6 software while dead cells were removed according to PI staining.
Below is an example, CF-Ahx-(ChaZZ)3, of gating, set on untreated cells and propagated to all samples.
Each sample was run in triplicate, and each experiment was repeated at least three times.
(1 picture or pasted object on this page, not shown here)

MCF-7 cells [2] = experiment: Colocalization of peptide with MitoTracker (Manders' coefficients from confocal images); type: cell-based; details: MCF-7, after 24 h rest versus after 1 h incubation, Figure S7B; 10 µM for (ChaZZ)3, otherwise concentration not stated
Procedure: MCF-7 cells were seeded in a 8-μwell Ibidi plate at 25′000 cells/well in DMEM (100 μL, 10% FCS) and allowed to adhere overnight. The medium was removed, the cells were washed with PBS (200 μL, 1x) and incubated with the peptide solution at 20 μM, 10 μM, 5 μM or 2.5 μM in DMEM (200 μL, 1% FCS) for 1 h at 37 °C. The medium was removed, and the cells were washed with PBS (200 μL, 2x). MitoTracker Deep Red was distributed at 20 nM in DMEM (200 μL, 1% FBS) and the cells were incubated at 37 °C for 25 min. The medium was removed, and the cells were washed with PBS (200 μL, 2x). Hoechst333342 was distributed at 2 μM in DMEM (200 μL, 1% FBS) and the cells were incubated at 37 °C for 5 min. The cells were washed with PBS (200 μL, 2x), and FluoroBrite medium (200 μL) was added. The live cells were monitored on the confocal microscope at 37 °C, 5% CO2.
For the cells subjected to a 24 h rest period, the FluoroBrite medium was exchanged for DMEM (200 μL, 10% FBS) after the initial imaging, and the cells were kept in this medium for 24 h. The culture medium was then exchanged for FluoroBrite DMEM, and the cells were imaged again.
Fluorescence images of cells were collected using a Nikon Eclipse T1 (inverse) microscope equipped with a Yokogawa Confocal Scanner Unit CSU-W1-T2, containing a spinning disk (50 µm). The microscope is equipped with two EMCCD Andor iXon Ultra cameras. Emission in the blue channel (405 nm) was filtered with a 450/50 bandpass filter, emission in the green channel (488 nm) was filtered with a 525/50 bandpass, and the emission in the red channel (641 nm) was filtered with a 708/75 bandpass filter. Fluorescence images were obtained using an oil-immersion objective with a magnification of 100 × 1.4 CFI Plan Apo Oil.
Each experiment was repeated at least three times. The images acquired were adjusted using ImageJ2 software. Correlation coefficients were determined on entire images using JaCOP plugin.1 […]
MCF-7 cells were seeded in a 8-µwell Ibidi plate at 25’000 cells/well in DMEM (100 µL, 10% FCS) and allowed to adhere overnight. The medium was removed. The cells were washed with PBS (200 µL, 1x) and incubated with the peptide solution at 20 µM, 10 µM, 5 µM, or 2.5 µM in DMEM (200 µL, 1% FCS) for 1 h at 37 °C. The medium was removed, and the cells were washed with PBS (200 µL, 2x).
For imaging of mitochondria, MitoTracker Deep Red was added as described in the manuscript. […]
PBS (200 µL, 2x). For imaging of the nucleus, Hoechst333342 was added at (200 µL, 2 µM in DMEM, 1% FBS) followed by incubation of the cells at 37 °C for 5 min. The cells were washed with PBS (200 µL, 2x), and FluoroBrite medium (200 µL) was added. The live cells were monitored on the confocal microscope […]
MCF-7 cells were seeded in a 96-well plate at 7’500 cells/well in cell culture medium (200 µL, 10% FCS), and allowed to adhere overnight. The medium was removed, the cells were washed with PBS (100 µL, 1x) and incubated with the peptide solution at 20 µM, 10 µM, 5 µM, or 2.5 µM in DMEM (200 µL, 1% FCS) for 1 h at 37 °C. The medium was removed, and the cells were washed with PBS (100 µL, 1x). The MTT solution in DMEM (110 µL, 1.2 mM, 1% FBS) was added. The cells were incubated for 3 h at 37 °C. The supernatant was carefully removed, and DMSO (100 µL) was added. The plate was gently shaken for 30 min and the absorption of formazan solution at 570 nm was measured on the plate reader. […]

## N=C(N)N[C@H]1C[C@@H](C(=O)N2C[C@@H](NC(=N)N)C[C@H]2C(=O)N[C@@H](CC2CCCCC2)C(=O)N2C[C@@H](NC(=N)N)C[C@H]2C(=O)N2C[C@@H](NC(=N)N)C[C@H]2C(=O)N[C@@H](CC2CCCCC2)C(=O)N2C[C@@H](NC(=N)N)C[C@H]2C(=O)N2C[C@@H](NC(=N)N)C[C@H]2C(=O)N[C@@H](CC2CCCCC2)C(N)=O)N(C(=O)[C@H](CC2CCCCC2)NC(=O)CCCCCNC(=O)c2ccc3c(c2)C(=O)OC32c3ccc(O)cc3Oc3cc(O)ccc32)C1 [(ChaZZ)3-Cha, CF-Ahx-(ChaZZ)3-Cha-NH2] ({5FAM-Ahx}-[Cha][Pro(cis-4-guanidino)][Pro(cis-4-guanidino)][Cha][Pro(cis-4-guanidino)][Pro(cis-4-guanidino)][Cha][Pro(cis-4-guanidino)][Pro(cis-4-guanidino)][Cha]-NH2)
MCF-7 cells [1]; MCF-7, 5 μM
  Fold higher cellular uptake with additional C-terminal hydrophobic residue (FACS): 3 fold
MCF-7 cells [1]; MCF-7, 10 μM
  Fold higher cellular uptake with additional C-terminal hydrophobic residue (FACS): 3 fold
MCF-7 cells [1]; MCF-7, 20 μM
  Fold higher cellular uptake with additional C-terminal hydrophobic residue (FACS): 1.5 fold
MCF-7 cells [1]
  Total cellular fluorescence after the 24 h rest compared with directly after 1 h incubation (FACS): constant or increased
MCF-7 cells [2]
  Fold change of MitoTracker overlap with the peptide (M2) after 24 h rest: up to 3.6 fold
  Fold change of peptide overlap with MitoTracker (M1) after 24 h rest: more than 1.5 fold

## CF-Ahx-(ChaZZ)3-NH2
MCF-7 cells [1]
  Total cellular fluorescence after the 24 h rest compared with directly after 1 h incubation (FACS): lower; also recorded: less fluorescence was observed after 24 h
MCF-7 cells [2]
  Fold change of peptide overlap with MitoTracker (M1) after 24 h rest: > 2 fold

## CF-Ahx-(ChaZZ)2-Cha-NH2
MCF-7 cells [1]; MCF-7, 5 μM
  Fold higher cellular uptake with additional C-terminal hydrophobic residue (FACS): 2 fold
MCF-7 cells [1]; MCF-7, 10 μM
  Fold higher cellular uptake with additional C-terminal hydrophobic residue (FACS): 4 fold
MCF-7 cells [1]; MCF-7, 20 μM
  Fold higher cellular uptake with additional C-terminal hydrophobic residue (FACS): 6 fold
MCF-7 cells [1]
  Total cellular fluorescence after the 24 h rest compared with directly after 1 h incubation (FACS): lower; also recorded: Significantly less fluorescence was observed after 24 h
MCF-7 cells [2]
  Fold change of MitoTracker overlap with the peptide (M2) after 24 h rest: 0.4 fold
  Fold change of peptide overlap with MitoTracker (M1) after 24 h rest: 1.3 fold
